Patent publication US20070237848A1, “MORINDA CITRIFOLIA BASED COMPOSITIONS FOR TREATMENT OF ANTI-INFLAMMATORY DISEASES THROUGH INHIBITION OF COX-1, COX-2, INTERLEUKIN-1beta, INTERLEUKIN-6, TNF-alpha, HLE, AND iNOS” (priority 2005, published 2007)

Legend:
[1] = target: T1, Human Leukocyte Elastase (HLE) (Homo sapiens, UniProt P08246); test: Leukocyte Elastase Assay (p-Nitroaniline, photometric); type: biochemical; conditions: standard reference agent
T1 sequence (P08246 30-267): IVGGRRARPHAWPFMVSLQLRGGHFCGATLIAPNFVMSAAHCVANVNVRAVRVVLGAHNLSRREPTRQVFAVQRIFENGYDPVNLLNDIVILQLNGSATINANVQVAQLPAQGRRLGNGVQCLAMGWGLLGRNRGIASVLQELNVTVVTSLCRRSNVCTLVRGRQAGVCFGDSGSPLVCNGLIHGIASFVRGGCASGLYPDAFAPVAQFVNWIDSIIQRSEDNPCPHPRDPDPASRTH
Description: A Leukocyte Elastase Assay was performed as follows. After preincubating the samples with the enzyme HLE (20 nM) at room temperature for 10 minutes, the reaction was started with an enzyme substrate (5 mM). The reaction time was 15 min at room temperature. The controls [t(0)] were performed without enzyme. […] The quantification of p-Nitroaniline was performed by direct photometrical measurement.
All sample points were measured in duplicate. […] The following tables, charts, and FIGS. 8A and 8B summarize the assay and the results.

[2] = tested on: inducible Nitrite Oxide Synthase (iNOS); test: iNOS assay in LPS-stimulated murine macrophages (J774A.1); type: cell-based; conditions: standard reference agent
Description: An iNOS Assay was performed as follows. Murine Macrophages (1.5*10^5 cells/well) were seeded for 24 hours. After preincubating the samples with the cells at room temperature for 10 minutes, the reaction was started with 1 μg/ml LPS (E.coli 055:B5). The incubation time was 24 hours at 37° C. and 5% CO 2. The controls [t(0)] were performed without LPS stimulation. The quantification of Nitric Oxide was performed with a Nitric Oxide Colorimetric Assay Kit from BioVision (Art.Nr: #K262-200). The optical densities were measured at λ=570 nm. […] Sample points were measured in triplicate. […] The following tables and charts and FIG. 9 summarize the assay and the results.

IC50 [1] [µM] | SMILES | IC50 [2] [µM]
30 | C[C@H]1[C@H](C)CC[C@]2(C(=O)O)CC[C@]3(C)C(=CC[C@@H]4[C@@]5(C)CC[C@H](O)C(C)(C)[C@@H]5CC[C@]43C)[C@H]12 [Ursolic acid] | 
 | COC(=O)[C@@H](N)CCCNC(=N)N[N+](=O)[O-] [L-NAME] | 600
